The values below come from patent publication US20050009924A1 (priority 2003, published 2005).

A value given as a limit tells only on which side of the number the result lay.

One series has as its system human hepatoma G2 cells. Nature of the series: Cytotoxicity assay (XTT colorimetric), Hep G2. To be noted: Homo sapiens, HepG2; 48 h of drug exposure. In kind it is cell-based.
For a further series, the system named is rat glioma C6 cells. Nature of the series: Cytotoxicity assay (XTT colorimetric), C6 cells. The series is classed as cell-based. As to conditions: Rattus norvegicus, C6; 48 h of drug exposure.
In series [1] the test system is transcriptional activity of hTERT. The series can be described thus: SEAP reporter assay of hTERT expression, PhTERT-SEAP (hTERT-BJ1). To be noted: Homo sapiens, hTERT-BJ1, read-out: Relative SEAP activity (%). The series is classed as cell-based, human. An outline of the steps:
(§1)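 Cells seeded, grown 24 h at 37° C, refed, then exposed to varying drug amounts for another 24 h. Collected media heated 65° C for 10 min to kill heat-labile phosphatases, mixed with equal SEAP buffer (2 M diethanolamine, 1 mM MgCl2, 20 mM […]) plus 12 mM final p-nitrophenyl phosphate; rate of A405 increase measured.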

For series [2] the test system is unchanged. Nature of the series: SEAP reporter assay of hTERT expression, PhTERT-SEAP (H1299). In kind it is cell-based, human. To be noted: Homo sapiens, NCI-H1299, H1299, read-out: Relative SEAP activity (%). An outline of the steps:
as §1

Another series deals with CMV promoter. The series can be described thus: SEAP reporter assay of CMV promoter activity, PCMV-SEAP (hTERT-BJ1). The series is classed as cell-based. As to conditions: Homo sapiens, read-out: Relative SEAP activity (%).
Series [3] is described as follows: MTT relative viability, PCMV-SEAP (hTERT-BJ1) cells. The series is classed as cell-based. To be noted: human, stable PCMV-SEAP reporter clone. The text has this:
Culture media were changed every 3 days. […] The stable clones were selected using G418.

Series [4] in a line: MTT relative viability, PhTERT-SEAP (H1299) cells. As to conditions: human.
Series [5] can be described thus: MTT relative viability, PhTERT-SEAP (hTERT-BJ1) cells. To be noted: human.
Series [6] has as its system iron-induced lipid peroxidation in rat brain homogenates. The series can be described thus: Iron-induced lipid peroxidation in rat brain homogenates. As to conditions: for LP (%) (10 mM): relative percentage of inhibition (Table 1).

The molecule `CCC(=O)Oc1cccc2c1C(=O)c1cccc(OC(=O)CC)c1C2=O` [IIIa, 1,5-Bis(propionyloxy)-anthraquinone] came in with a melting point of 230 to 231 °C. In the series on human hepatoma G2 cells, this molecule showed an IC50 of 4.1 ± 0.5 µM. Besides, half-maximal inhibition with rat glioma C6 cells (IC50) required 21.1 ± 1.6 µM. In series [1], the activity at 2.8 µM was 131 ± 7%, the activity at 28 µM worked out at 152 ± 16.7% and the activity at 280 µM is 161 ± 12.2%. In [2], the activity at 2.8 µM stood at 103 ± 5.8%, the activity at 28 µM worked out at 107 ± 4.9% and the activity at 280 µM is 97 ± 3.1%. For the same molecule, the activity at 2.8 µM in the series with CMV promoter (2.8 μM) was found to be 101 ± 6%. Besides, the activity at 28 µM with CMV promoter (28 μM) amounted to 112 ± 6%. Moreover, the activity at 280 µM with CMV promoter (280 μM) worked out at 138 ± 12%. The viability at 48 h, 2.8 µM in [3] (2.8 μM) came to 114 ± 16%. Further, the viability at 48 h, 28 µM in series [3] (28 μM) was determined as 110 ± 12%. Also, the viability at 48 h, 280 µM in [3] (280 μM) was found to be 94 ± 21%. Moreover, in series [4], the viability at 48 h, 2.8 µM turned out to be 116 ± 8%; the viability at 48 h, 28 µM turned out to be 116 ± 7.4%; the viability at 48 h, 280 µM was found to be 87 ± 6.6%. Besides, in series [5], the viability at 48 h, 2.8 µM was 99 ± 11.9%; the viability at 48 h, 28 µM stood at 109 ± 8.7%; the viability at 48 h, 280 µM was found to be 93 ± 10.8%. The “Inhibition of LP(10 mM)” value in [6] (10 mM, mean percent inhibition (Table 3)) is reported as −100%.
For the molecule `CCCSc1cccc2c1C(=O)c1cccc(SCCC)c1C2=O` [IIc, 1,5-Bis(propylthio)-anthraquinone], the melting point was 232 to 233 °C. The same molecule had an IC50 in the series with human hepatoma G2 cells of 75.1 ± 2.5 µM. Besides, in the series on rat glioma C6 cells, the midpoint of inhibition, the IC50, lay at 29.9 ± 2.1 µM. Also, in series [1], the activity at 2.8 µM was 132 ± 21%, the activity at 28 µM turned out to be 110 ± 13.2% and the activity at 280 µM came out at 122 ± 14.3%. Moreover, in [2], the activity at 2.8 µM amounted to 73 ± 5.4%, the activity at 28 µM worked out at 29 ± 2.5% and the activity at 280 µM came to 17 ± 13.9%. Moreover, in [4], the viability at 48 h, 2.8 µM stood at 96 ± 5.9%; the viability at 48 h, 28 µM stood at 44 ± 2.5%; the viability at 48 h, 280 µM was found to be 25 ± 2.4%. Besides, in series [5], the viability at 48 h, 2.8 µM came out at 103 ± 6.3%; the viability at 48 h, 28 µM is 97 ± 3%; the viability at 48 h, 280 µM came out at 39 ± 4.9%. Further, the “LP (%) (10 mM)” value in series [6] (10 mM) is 15 ± 1.5%.
`O=C1c2cccc(SCCCCCCO)c2C(=O)c2cccc(SCCCCCCO)c21` [IIe, 1,5-Bis(hydroxyhexylthio)-anthraquinone] came in with a melting point of 195 to 196 °C. In the series with human hepatoma G2 cells, this molecule registered an IC50 of 49.3 ± 2.1 µM. The same molecule returned a half-inhibitory concentration (IC50) in the series on rat glioma C6 cells of 31.7 ± 1.6 µM. For the same molecule, in [1] (2.1 μM), the activity at 2.1 µM turned out to be 140 ± 9.7%. Moreover, the activity at 21 µM in series [1] (21 μM) was found to be 128 ± 14.4%. The activity at 210 µM in [1] (210 μM) was determined as 75 ± 17.4%. Besides, the activity at 2.1 µM in [2] (2.1 μM) stood at 110 ± 6.1%. In addition, the activity at 21 µM in [2] (21 μM) was found to be 100 ± 5.5%. The activity at 210 µM in [2] (210 μM) stood at 68 ± 5.9%. Besides, in series [4], the viability at 48 h, 2.1 µM turned out to be 99 ± 6.2%; the viability at 48 h, 21 µM came to 94 ± 3.9%; the viability at 48 h, 210 µM stood at 36 ± 4.2%. Further, in series [5], the viability at 48 h, 2.1 µM worked out at 99 ± 6.2%; the viability at 48 h, 21 µM came out at 70 ± 2.2%; the viability at 48 h, 210 µM came to 40 ± 4.7%. Besides, in series [6] (10 mM), the “LP (%) (10 mM)” value came out at 54 ± 1.9%.
`Nc1cccc(Sc2cccc3c2C(=O)c2cccc(Sc4cccc(N)c4)c2C3=O)c1` [IIg, 1,5-Bis(m-aminophenylthio)-Anthraquinone] had a melting point of 292 to 293 °C. For the same molecule, the concentration for half-maximal inhibition (IC50) in the series with human hepatoma G2 cells came out at 21.5 ± 1.2 µM. For the same molecule, the midpoint of inhibition in the series on rat glioma C6 cells, the IC50, lay at 26.3 ± 2.8 µM. Also, in series [1], the activity at 2.2 µM worked out at 118 ± 9.9%, the activity at 22 µM was 41 ± 9.5% and the activity at 220 µM was found to be 8 ± 30.6%. Besides, in series [2], the activity at 2.2 µM stood at 106 ± 7.6%, the activity at 22 µM was found to be 109 ± 11.7% and the activity at 220 µM is 101 ± 7.3%. Further, in [4], the viability at 48 h, 2.2 µM worked out at 92 ± 3.5%; the viability at 48 h, 22 µM was 68 ± 1.9%; the viability at 48 h, 220 µM was found to be 32 ± 4.9%. Moreover, in [5], the viability at 48 h, 2.2 µM amounted to 104 ± 5.1%; the viability at 48 h, 22 µM came to 9 ± 3.4%; the viability at 48 h, 220 µM stood at 4 ± 1.5%. Besides, the “LP (%) (10 mM)” value in [6] (10 mM) is listed as 6 ± 0.9%.
`Nc1ccc(Sc2cccc3c2C(=O)c2cccc(Sc4ccc(N)cc4)c2C3=O)cc1` [IIh, 1,5-Bis(p-aminophenylthio)-Anthraquinone] yielded a melting point of 364 to 365 °C. The molecule further gave an IC50 in the series with human hepatoma G2 cells of 17.4 ± 1.5 µM. Besides, in the series on rat glioma C6 cells, the IC50 worked out at 0.05 ± 0.01 µM. Moreover, in series [1], the activity at 2.2 µM was found to be 97 ± 17.9%, the activity at 22 µM worked out at 97 ± 14.5% and the activity at 220 µM amounted to 26 ± 12.6%. In [2], the activity at 2.2 µM is 100 ± 5.7%, the activity at 22 µM turned out to be 95 ± 2.6% and the activity at 220 µM worked out at 84 ± 5.3%. In series [4], the viability at 48 h, 2.2 µM came out at 103 ± 4.3%; the viability at 48 h, 22 µM was 76 ± 4%; the viability at 48 h, 220 µM amounted to 42 ± 2.3%. In series [5], the viability at 48 h, 2.2 µM is 86 ± 11.9%; the viability at 48 h, 22 µM worked out at 65 ± 12.6%; the viability at 48 h, 220 µM came out at 56 ± 13.8%. In [6] (10 mM), the “LP (%) (10 mM)” value is reported as 20 ± 1.4%.
For the molecule `O=C1c2cccc(SCc3ccccc3)c2C(=O)c2cccc(SCc3ccccc3)c21` [IIi, 1,5-Bis(benzylthio)-anthraquinone], the melting point was 281 to 282 °C. Besides, it took 41.5 ± 2.5 µM to reach half-maximal inhibition in the series with human hepatoma G2 cells (IC50). The same molecule yielded an IC50 in the series with rat glioma C6 cells of 38.2 ± 4.4 µM. Moreover, in [1], the activity at 2.2 µM is 117 ± 11.3%, the activity at 22 µM was 112 ± 9.3% and the activity at 220 µM came to 87 ± 11.1%. Besides, in series [2], the activity at 2.2 µM came to 97 ± 6%, the activity at 22 µM came out at 100 ± 7.2% and the activity at 220 µM is 100 ± 12.9%. Besides, in [4], the viability at 48 h, 2.2 µM was determined as 83 ± 5.5%; the viability at 48 h, 22 µM was 44 ± 0.9%; the viability at 48 h, 220 µM amounted to 34 ± 3.3%. For the same molecule, in series [5], the viability at 48 h, 2.2 µM was found to be 121 ± 4.7%; the viability at 48 h, 22 µM worked out at 98 ± 4.2%; the viability at 48 h, 220 µM amounted to 47 ± 9.1%. Besides, the “Inhibition (%)” value in series [6] (0.01 mM) was determined as 24 ± 0.8%. Moreover, the “Inhibition (%)” value in [6] (0.1 mM) turned out to be 60 ± 2.0%. For the same molecule, the “Inhibition (%)” value in [6] (1 mM) is recorded as 95%. Besides, in series [6] (10 mM), the “Inhibition (%)” value was greater than 100% and the “LP (%) (10 mM)” value is listed as greater than 100%.
In the case of `O=C1c2cccc(SCCc3ccccc3)c2C(=O)c2cccc(SCCc3ccccc3)c21` [IIk, 1,5-Bis(phenylethylthio)-anthraquinone], the melting point lay in the range of 209 to 210 °C. For the same molecule, 36.9 ± 1.5 µM corresponded to half-maximal inhibition in the series with human hepatoma G2 cells (IC50). This molecule also returned an IC50 in the series on rat glioma C6 cells of 32.9 ± 3.3 µM. Further, in series [1], the activity at 2.2 µM amounted to 119 ± 12.2%, the activity at 22 µM turned out to be 109 ± 23.4% and the activity at 220 µM was determined as 110 ± 30.6%. For the same molecule, in series [2], the activity at 2.2 µM is 108 ± 0.5%, the activity at 22 µM is 102 ± 0.5% and the activity at 220 µM came to 97 ± 4.8%. Also, in series [4], the viability at 48 h, 2.2 µM was determined as 93 ± 6.2%; the viability at 48 h, 22 µM turned out to be 51 ± 9.3%; the viability at 48 h, 220 µM turned out to be 27 ± 2.9%. For the same molecule, in series [5], the viability at 48 h, 2.2 µM was found to be 91 ± 3.9%; the viability at 48 h, 22 µM came out at 54 ± 4.4%; the viability at 48 h, 220 µM turned out to be 35 ± 4.1%. In series [6] (10 mM), the “LP (%) (10 mM)” value amounted to 69 ± 1.5%.
